# In publication PMC12391474 (Scientific Reports, 2025):
# Counter-ions that a name gives are not always drawn.
# Target: T1, Fibrinogen (FB) (Bos taurus, UniProt P02672+P02676+P12799)
# T1 sequence (P02672 20-615): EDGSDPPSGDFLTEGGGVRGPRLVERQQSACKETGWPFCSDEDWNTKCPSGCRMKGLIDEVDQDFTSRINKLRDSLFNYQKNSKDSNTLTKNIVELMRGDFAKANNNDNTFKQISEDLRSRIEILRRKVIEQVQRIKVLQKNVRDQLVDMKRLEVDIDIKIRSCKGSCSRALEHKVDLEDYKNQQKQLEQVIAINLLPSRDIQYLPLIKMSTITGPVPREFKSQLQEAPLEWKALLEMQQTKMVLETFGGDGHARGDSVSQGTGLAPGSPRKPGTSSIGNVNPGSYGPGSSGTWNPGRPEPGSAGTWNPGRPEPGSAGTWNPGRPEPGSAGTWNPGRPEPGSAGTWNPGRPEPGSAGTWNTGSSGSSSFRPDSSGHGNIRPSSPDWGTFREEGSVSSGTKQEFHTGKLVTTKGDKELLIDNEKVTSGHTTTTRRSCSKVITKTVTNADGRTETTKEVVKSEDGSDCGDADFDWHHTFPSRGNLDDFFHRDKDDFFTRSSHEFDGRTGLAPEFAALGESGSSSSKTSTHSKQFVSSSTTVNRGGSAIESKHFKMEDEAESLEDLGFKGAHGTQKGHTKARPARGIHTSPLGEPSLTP
# T1 sequence (P02676 1-468): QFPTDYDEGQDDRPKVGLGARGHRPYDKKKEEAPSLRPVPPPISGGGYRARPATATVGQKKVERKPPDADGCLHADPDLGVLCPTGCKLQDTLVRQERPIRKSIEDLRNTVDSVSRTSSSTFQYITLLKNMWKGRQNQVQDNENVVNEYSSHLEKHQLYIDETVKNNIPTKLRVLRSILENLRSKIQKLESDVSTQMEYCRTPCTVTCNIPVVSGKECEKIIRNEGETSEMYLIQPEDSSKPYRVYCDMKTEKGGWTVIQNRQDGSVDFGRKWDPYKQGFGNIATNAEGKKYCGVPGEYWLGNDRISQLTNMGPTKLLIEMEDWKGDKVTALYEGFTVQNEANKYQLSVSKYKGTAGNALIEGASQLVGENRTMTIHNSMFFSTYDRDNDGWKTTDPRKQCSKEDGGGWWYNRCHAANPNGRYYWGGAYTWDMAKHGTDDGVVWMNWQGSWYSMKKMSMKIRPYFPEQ
# T1 sequence (P12799 25-444): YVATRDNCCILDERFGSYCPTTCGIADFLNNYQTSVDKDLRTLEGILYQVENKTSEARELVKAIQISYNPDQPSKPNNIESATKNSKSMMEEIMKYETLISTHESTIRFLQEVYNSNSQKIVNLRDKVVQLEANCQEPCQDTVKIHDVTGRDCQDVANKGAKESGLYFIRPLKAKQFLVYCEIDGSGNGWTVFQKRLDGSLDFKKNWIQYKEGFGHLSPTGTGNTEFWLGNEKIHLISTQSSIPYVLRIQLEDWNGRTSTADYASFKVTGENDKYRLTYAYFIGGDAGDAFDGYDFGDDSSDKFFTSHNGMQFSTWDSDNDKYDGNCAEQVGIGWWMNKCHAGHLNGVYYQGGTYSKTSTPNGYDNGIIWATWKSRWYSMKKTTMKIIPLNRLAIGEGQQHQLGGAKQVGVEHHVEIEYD
# Test: intrinsic fluorescence quenching titration
# Assay type: binding
compound,measurement,value
"CC(C)(C)NC[C@H](O)COc1nsnc1N1CCOCC1 [TM, Timolol maleate]",Kd,1.65 mM
